Results from patent US20200223839A1, “FLUORO-CONTAINING COMPOUNDS, USE AND PREPARATION THEREOF” (JIANGSU YINGKEBEITA YIYAOKEJI CO. LTD, priority 2017, published 2020).

Columns and labels:
HCT116 = experiment: Cytotoxicity assay by the CTG method, HCT116; type: cell-based; conditions: Homo sapiens, HCT-116, HCT116, Colon cancer, 72 h
Experimental: (§1) The corresponding cells were harvested from flask into cell culture medium and the cell number were counted. The cells were diluted with culture medium to the desired density and 40 μL of cell suspension was added into each well of 384-well cell culture plate as designated. The plates were covered with lid and placed in room temperature for 30 minutes without shaking and then were transferred plates into 37° C. 5% CO2 incubator overnight for cell attachment.
(§2) Compound preparation and treatment: Test compounds were received or dissolved at 30 mM stock solution and control compound Staurosporine was stored as 10 mM and 1 mM concentration. 45 uL of stock solution was transferred to a 384 pp-plate. 3 fold, 10-point dilution were performed via transferring 15 uL compound into 30 μL DMSO by using TECAN (EVO200) liquid handler. The plates were spun at room temperature at 1,000 RPM for 1 minute and shaken at a plate shaker for 2 minutes. […]
(§3) The plate from incubators were placed and equilibrated at room temperature for 15 minutes. […] 40 μL of CellTiter-Glo reagent were transferred into each well to be detected (at 1:1 to culture medium). Then the plates were placed at room temperature for 30 min followed by reading on EnSpire.
(§4) The inhibition activity was calculated following the formula below: […]
(§5) The IC50 were calculated by fitting the Curve using Xlfit (v5.3.1.3): […]

MOLT4 = experiment: Cytotoxicity assay by the CTG method, MOLT4; type: cell-based; conditions: Homo sapiens, MOLT-4, MOLT4, Leukemia, 72 h
Experimental: as §1, §2, §3, §4, §5

ZR-75-1 = experiment: Cytotoxicity assay by the CTG method, ZR-75-1; type: cell-based; conditions: Homo sapiens, ZR-75-1, Breast cancer, 72 h
Experimental: as §1, §2, §3, §4, §5

MDA-MB-468 cell line = experiment: Anti-tumor activity against MDA-MB-468 cell line (CCK-8 test); type: cell-based; conditions: Homo sapiens, MDA-MB-468, 72 h
Experimental: A cryo tube was removed from liquid nitrogen. As quickly as possible, the cells were thawed by placing the vial in a 37° C. water bath and gently shaking the vials. The cells were transferred to medium tube, which containing 5 mL medium, and were centrifuged at 1000 rpm for 6 min. The supernatant containing dead cells and cell debris was discarded. 1 mL of pre-warmed medium with 10% FBS was add and the solution was re-suspended. The plate was placed in 37° C. and 5% CO2 incubator. The medium was changed next day.
Cells in logarithmic growth stage were taken and culture medium was discarded. 1 mL 0.25% trypsin solution was added for twice. The trypsin solution was removed and the 0.5 ml 0.25% trypsin solution was added to the cell flask. The plate was placed in 37° C. and 5% CO2 incubator for a few minutes until the cells recovered. 1 mL medium was added to stop digestion. The liquid was transferred by pipette for experiment.
the cells were suspended and the medium was discarded. 1 mL 0.25% trypsin solution was added for twice and the trypsin digestion was centrifuged. The cells were suspended with the culture medium, count and adjusted to the appropriate concentration.
The cell suspension was added to the 96-well plate with a volume of 100 uL per well, as shown in Tab. 5, and was placed in 37° C., 5% CO2 incubator overnight.
Preparation of Compounds Working Solution.
The test compounds were dissolved in DMSO at 10 mM with sterile filter (0.22 um, nelon, JET). After filtering, the solution were continuously diluted by three times with DMSO. A total of six concentration were prepared, as shown below.
6 uL compound solution was added to 594 uL medium and the solution was added to 96-well plate as shown and cultured for 72 h in CO2 incubator.
A CCK-8 solution was prepared according to the instructions and the 96-well plate was taken out and the original medium discarded. 100 uL cck-8 solution was added to each well in the 96-well plate. Photoabsorption data were read by TECAN enzyme marker after a period of time.
IC (%)=[Ac-As]/[Ac-Ab]*100% • As: Experimental well (containing culture medium, cell, CCK-8 and compound); • Ac: Controlled well (containing culture medium, cell and CCK-8); • Ab: Blank well (Only containing medium and CCK-8).

A2058 = experiment: Cytotoxicity assay by the CTG method, A2058; type: cell-based; conditions: Homo sapiens, A2058, Melanoma, 72 h
Experimental: as §1, §2, §3, §4, §5

[1] = In vivo mouse model, Hep3B, mice weights
From the text: Hep3B cells (human liver cancer) were also studied in a mouse model. […] FIG. 9.

SK-MEL-3 = experiment: Cytotoxicity assay by the CTG method, SK-MEL-3; type: cell-based; conditions: Homo sapiens, SK-MEL3, SK-MEL-3, Melanoma, 72 h
Experimental: as §1, §2, §3, §4, §5

COLO205 = experiment: Cytotoxicity assay by the CTG method, COLO205; type: cell-based; conditions: Homo sapiens, COLO 205, COLO205, Colon cancer, 72 h
Experimental: as §1, §2, §3, §4, §5

A549 = experiment: Cytotoxicity assay by the CTG method, A549; type: cell-based; conditions: Homo sapiens, A549, Lung cancer, 72 h
Experimental: as §1, §2, §3, §4, §5

[2] = In vivo mouse model, MDA-MB-453, mice weights; conditions: MDA-MB-453 mouse model
From the text: MDA-MB-453 cells (human breast cancer) were also studied in a mouse model. […] FIG. 7.

NCI-H446 = experiment: Cytotoxicity assay by the CTG method, NCI-H446; type: cell-based; conditions: Homo sapiens, NCI-H446, Lung cancer, 72 h
Experimental: as §1, §2, §3, §4, §5

HCC1937 = experiment: Cell culture and cytotoxicity assay (CTG), HCC1937; type: cell-based; conditions: Homo sapiens, HCC1937, exposure 72 hours
Experimental: The assayed compounds each was dissolved in DMSO with a final concentration of 10 mM or 40 mM and stored at −20° C. Tumor cell lines A549 (7,000 cells/well), BT474 (12,000 cells/well), MDA-MB-468 (12,000 cells/well), and HCC1937 (6,000 cells/well) were seeded on 96-well plates. And the cells were pre-incubated at 37° C./5% CO2 for 24 hours. The cells were exposed to different concentrations of the assay compounds (from 400 μM to 782 nM, from 200 μM to 391 nM, from 100 μM to 196 nM, and from 50 μM to 98 nM) for the following time:
After incubation, 100 μL from each well was discarded and CTG base (Proega, G7571, 50 μL) was added and the mixture was agitated for 2 minutes. The mixtures were stored in a dark room for 10 minutes and the viability was analyzed with Multiskan microplate reader.

BT-474 = experiment: Cytotoxicity assay by the CTG method, BT-474; type: cell-based; conditions: Homo sapiens, BT-474, Breast cancer, 72 h
Experimental: as §1, §2, §3, §4, §5

With `Cc1ccc(S(=O)(=O)Nc2nc3ccccc3nc2Nc2ccc3nsnc3c2)cc1F` [Compound 4f, N-[3-(benzo[1,2,5]thiadiazol-5-ylamino)-quinoxalin-2-yl]-3-fluoro-4-methyl-benzenesulfonamide] as the compound, how does the IC50 (HCT116) read?
The IC50 was 5.44 µM.

What about the IC50 (MOLT4) of the same compound?
Its IC50 is 4.72 µM.

And the IC50 (ZR-75-1)?
Its IC50 is 1.53 µM.

What about the IC50 (MDA-MB-468 cell line) of the same compound?
Its IC50 is 0.912 µM.

What about the IC50 (A2058) of the same compound?
The IC50 was 7.7 µM.

And the weight changes ([1]; FIG. 9, 50 mg/Kg)?
Its weight changes is “no difference in weight changes”.

And the weight changes ([1]; FIG. 9, 100 mg/Kg)?
The weight changes was “no difference in weight changes”.

What about the IC50 (SK-MEL-3) of the same compound?
Its IC50 is 9.06 µM.

What about the IC50 (COLO205) of the same compound?
Its IC50 is 2.99 µM.

And the IC50 (A549)?
The IC50 was 8.33 µM.

And the weight changes ([2]; FIG. 7, 50 mg/Kg)?
The weight changes was “no difference in weight changes”.

And the weight changes ([2]; FIG. 7, 100 mg/Kg)?
Its weight changes is “no difference in weight changes”.

What about the IC50 (NCI-H446) of the same compound?
The IC50 was 3.92 µM.

What about the IC50 (HCC1937) of the same compound?
The IC50 was 37900 nM.

What about the IC50 (BT-474) of the same compound?
The IC50 was 7.01 µM.
